Source: publication PMC2330087, “Mechanistic Insights into a Novel Exporter-Importer System of Mycobacterium tuberculosis Unravel Its Role in Trafficking of Iron” (PLoS ONE, 2008)

Target: T1, rIrtA (Rv1348) in LP-48 liposomes (Mycobacterium tuberculosis, UniProt P9WQJ9)
T1 construct: gene irtA
T1 sequence (P9WQJ9 whole entry): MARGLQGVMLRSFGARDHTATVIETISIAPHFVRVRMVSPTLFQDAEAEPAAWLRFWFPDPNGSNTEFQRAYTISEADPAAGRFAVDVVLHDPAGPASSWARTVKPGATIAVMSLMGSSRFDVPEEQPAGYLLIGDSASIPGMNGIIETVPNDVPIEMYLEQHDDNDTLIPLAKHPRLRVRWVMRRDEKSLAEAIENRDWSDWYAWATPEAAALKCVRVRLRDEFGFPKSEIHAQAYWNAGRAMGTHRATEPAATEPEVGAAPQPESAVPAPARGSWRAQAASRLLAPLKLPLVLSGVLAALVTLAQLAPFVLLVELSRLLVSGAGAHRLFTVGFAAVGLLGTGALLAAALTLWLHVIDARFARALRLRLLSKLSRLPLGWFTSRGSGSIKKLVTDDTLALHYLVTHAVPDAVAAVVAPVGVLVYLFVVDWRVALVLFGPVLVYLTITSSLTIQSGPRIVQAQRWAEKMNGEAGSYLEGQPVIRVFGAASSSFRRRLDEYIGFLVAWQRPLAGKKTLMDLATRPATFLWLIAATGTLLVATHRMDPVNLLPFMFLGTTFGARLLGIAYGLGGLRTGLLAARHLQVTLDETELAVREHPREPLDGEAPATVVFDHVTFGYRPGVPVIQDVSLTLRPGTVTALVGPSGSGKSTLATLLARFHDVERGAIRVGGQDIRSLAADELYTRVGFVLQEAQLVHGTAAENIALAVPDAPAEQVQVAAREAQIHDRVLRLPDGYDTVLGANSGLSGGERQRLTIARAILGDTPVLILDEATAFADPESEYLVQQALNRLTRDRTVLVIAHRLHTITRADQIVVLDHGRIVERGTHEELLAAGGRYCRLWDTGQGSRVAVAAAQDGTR

## Nc1ncnc2c1ncn2[C@@H]1O[C@H](COP(=O)(O)OP(=O)(O)OP(=O)(O)O)[C@@H](O)[C@H]1O [ATP]
  inorganic phosphate release in proteoliposomes: the ATP hydrolysis by rIrtA was not seen in the absence of cMyco
